According to patent publication US20170143653A1, “USE OF SULINDAC FOR PROTECTING RETINAL PIGMENT EPITHELIAL CELLS AGAINST OXIDATIVE STRESS” (CHS PHARMA, INC., priority 2011, published 2017):
“Also recorded” adds a separate entry of the source.

How the values were obtained:
Type in all cases: cell-based
iNOS = test: Western blot of late phase preconditioning marker iNOS in RPE cells; conditions: RPE cells pretreated 48 hours
Description: (§1) The ability of sulindac to protect RPE cells against oxidative stress was determined by analyzing cellular viability following treatment of cultured ARPE19 cells with sulindac, before exposing the cells to conditions leading to oxidative damage. Following 24 hr treatment of the cells with sulindac, ARPE19 cells were exposed to either a range of tert-Butyl Hydrogen peroxide (t-BHP) concentrations for 24 hrs or a range of intensities of ultraviolet B (UVB) to induce oxidative stress. To test the involvement of PKC, the non-specific PKC blocker chelerythrine and also specific blockers for individual isoforms of PKC were used. The possible role of PKG was investigated by the addition of PKG inhibitor Rp-8-Br-PET-CGMPs along with sulindac. Western blotting was used to detect induction of late phase markers of preconditioning.
(§2) The sulindac protective effect on RPE cells is due to ischemic preconditioning. The IPC response in tissues is often initiated by ROS and/or NO which activates mitochondrial PKC epsilon as part of a complex mechanism that also involves the opening of the mitochondrial ATP sensitive K+ channel and preventing the formation of the mitochondrial permeability transition pore. We have looked more closely at the possible role of PKC in the protection of RPE cells by sulindac, as was shown previously in cardiac studies. […]

ARPE-19 cells [1] = test: Protection of ARPE-19 cells against 24 hr hypoxic stress, cell viability; conditions: 24 hours preincubation, 24 hr hypoxia
Description: (§3) For protecting RPE cells from oxidative stress induced damage we used the NSAID, sulindac. For our experiment we used ARPE-19 cells cultured in 96 well plates. The cells were preincubated with sulindac for 48 hours prior to exposing them to oxidative stress. Our oxidizing agents of choice were TBHP and Hydrogen peroxide (H2O2). We also stressed the ARPE-19 cells with 24 hours of Hypoxia treatment. After the stress the cellular viability was evaluated using the MTS assay. This assay uses a tetrazolium compound that is bioreduced into a formazan product in the cells. The signal generated (color intensity) is directly proportional to the number of viable (metabolically active) cells in the wells.
To test the ability of sulindac; in protecting against a variety of stresses ARPE-19 cells were exposed to 24 hours of hypoxic stress following sulindac preincubation. The ARPE-19 cells were grown in 96 well plates inside a hypoxia chamber having only 5% oxygen for 24 hours to induce hypoxic stress. Prior to exposing the cells to hypoxia, one set of cells was incubated 24 hours with sulindac.

ARPE-19 cells [2] = test: Protection of ARPE-19 cells against H2O2 induced oxidative stress, cell viability; conditions: incubated 24 hrs, then 50 μM H2O2
Description: as §3
The next experiment was designed to determine if preincubation with sulindac is also effective in protecting ARPE-19 cells against oxidative stress induced by treatment of retina cells with H2O2. Cells were incubated with sulindac for 24 hrs and then exposed to 50 μM H2O2.

ARPE-19 cells [3] = test: Protection of ARPE-19 cells against TBHP oxidative stress, cell viability (MTS)
Description: as §3
(§4) ARPE-19 cells were preincubated with different concentrations of sulindac ranging from 50 uM to 400 μM.
as §1
It seemed reasonable to investigate whether sulindac could also protect other cells, such as RPE cells, which are susceptible to oxidative damage and known to have a strong ischemic preconditioning (IPC) response. Two types of oxidative stress were used in these experiments, either exposure of the RPE cells to an oxidizing agent such as TBHP, or exposure to UV light. […]

Hsp27 = test: Western blot of late phase preconditioning marker Hsp27 in RPE cells; conditions: RPE cells pretreated 48 hours
Description: as §1, §2

RPE cells [4] = test: Protection of RPE cells against UVB radiation damage, cell viability
Description: as §1
It seemed reasonable to investigate whether sulindac could also protect other cells, such as RPE cells, which are susceptible to oxidative damage and known to have a strong ischemic preconditioning (IPC) response. Two types of oxidative stress were used in these experiments, either exposure of the RPE cells to an oxidizing agent such as TBHP, or exposure to UV light. In these experiments the RPE cells were pretreated for 24 hours with varying concentrations of sulindac, sulindac sulfone or sildenafil as described in the Figures. […] To determine whether this protective effect was due to the NSAID activity of sulindac, sulindac sulfone, a metabolite, of sulindac that has no NSAID activity was tested in place of sulindac for its UV protective effect. […] It should also be noted that sulindac sulfone is not a substrate for the Msr system which eliminates the possibility that the sulindac protective effect was related to its being a substrate for the Msr enzymes and functioning as a catalytic anti-oxidant in an ROS scavenging system.

ARPE-19 cells [5] = conditions: human, 48 h
Description: as §3, §4

RPE cells [6] = test: Reversal of sulindac protection of RPE cells against UV damage by PKC/PKG inhibitors; conditions: for reversal of the protective effect of sulindac against UV damage: 1200 mj UVB, rottlerin at 3 uM
Description: as §1
The sulindac protective effect on RPE cells is due to ischemic preconditioning. The IPC response in tissues is often initiated by ROS and/or NO which activates mitochondrial PKC epsilon as part of a complex mechanism that also involves the opening of the mitochondrial ATP sensitive K+ channel and preventing the formation of the mitochondrial permeability transition pore. We have looked more closely at the possible role of PKC in the protection of RPE cells by sulindac, as was shown previously in cardiac studies. […] Based on previous preconditioning studies it seemed reasonable to look specifically at PKC epsilon. […] In the previous cardiac study it was also shown that two late stage preconditioning markers, iNOS and Hsp27 were induced by sulindac.
The role of PKG in the sulindac protective effect was examined. The above results support previous studies that agents that can initiate an ischemic preconditioning response may have therapeutic value in delaying the onset, or slowing the progression, of retinal diseases arising from ischemia and oxidative damage. […] Both sulindac and sildenafil are known to be inhibitors of PDE5, which results in increasing the level of cGMP and activation of PKG. […]

Structure (SMILES): CC1=C(CC(=O)O)c2cc(F)ccc2/C1=C\c1ccc([S+](C)[O-])cc1 (centres unmarked) [sulindac]
- induction of iNOS (iNOS): significant induction
- protection against hypoxia induced stress (cell viability) (ARPE-19 cells [1]): significant protection; also recorded: higher viability
- protection against H2O2 induced oxidative stress (ARPE-19 cells [2]): capable of protecting retina cells against H2O2 induced oxidative stress
- protection against t-BHP insult, survival (ARPE-19 cells [3]; 24 hrs pretreatment, t-BHP 24 hrs): protected them against both types of insult and enhanced survival
- protection against loss of cell viability due to oxidative stress by TBHP (ARPE-19 cells [3]; ARPE-19 cells preincubated with 50 uM to 400 μM sulindac, 48 hours, MTS assay): protected the ARPE-19 cells against loss of cell viability
- protection against TBHP damage (cell viability) (ARPE-19 cells [3]; sulindac 125 and 200 uM, 24 hours pretreatment, varying TBHP): essentially complete protections
- induction of Hsp27 (Hsp27): significant induction
- protection against UV exposure (RPE cells [4]; 500 uM, 24 hours pretreatment, 1200 mj UV): 50%
- protection against UVB insult, survival (RPE cells [4]; 24 hrs pretreatment, range of UVB intensities): protected them against both types of insult and enhanced survival
- sulindac concentration toxic to ARPE-19 cells (acute reduction of cell viability) (ARPE-19 cells [5]): ≥ 200 μM

Structure (SMILES): CCCc1nn(C)c2c(=O)[nH]c(-c3cc(S(=O)(=O)N4CCN(C)CC4)ccc3OCC)nc12 [sildenafil]
- protection against UV damage (RPE cells [4]; 20 uM, 1200 mj UVB): can also protect RPE cells against UV damage similar to sulindac

Structure (SMILES): COc1ccc2c(c[n+](C)c3c4cc5c(cc4ccc23)OCO5)c1OC [chelerythrin]
- reversal of the protective effect of sulindac against UV damage (RPE cells [6]): significantly reversed

Structure (SMILES): CC1=C(CC(=O)O)c2cc(F)ccc2/C1=C\c1ccc(S(C)(=O)=O)cc1 [sulindac sulfone]
- protection against hypoxia induced stress (cell viability) (ARPE-19 cells [1]): partial protection
- protection against H2O2 induced oxidative stress (ARPE-19 cells [2]): only partial protection
- protection against UV damage (RPE cells [4]; 200 uM, 24 hours pretreatment): complete protection

Structure (SMILES): O=c1c2nc(Br)n([C@@H]3O[C@@H]4CO[P@@](O)(=S)O[C@H]4[C@H]3O)c2nc2[nH]c(-c3ccccc3)cn12 [Rp-8-Br-PET-CGMPs]
- inhibition of the sulindac protective effect on RPE cells exposed to UV damage (RPE cells [6]; 250 nM, 24 hours with sulindac): > 50%

Structure (SMILES): CC(=O)c1c(O)c(C)c(O)c(Cc2c(O)c3c(c(C(=O)/C=C/c4ccccc4)c2O)OC(C)(C)C=C3)c1O [rottlerin]
- reversal of the protective effect of sulindac against UV damage (RPE cells [6]): no reversal
